Test results taken from US20040152641A1, “Use of polymethoxylated flavones for treating insulin resistance” (priority 2001, published 2004).
≈ marks a conversion by molar mass, not a printed value.

What was measured:
[1] = test system: hamsters with casein-induced hypercholesterolemia; details: 0.13-1.0% supplementation; cited from earlier work
HepG2 cells = test: Medium apo B in HepG2 cells made insulin-resistant by long-term insulin incubation; format: cell-based, human; details: insulin plus 25 μg/mL tangeretin, 5 days, Elisa
Description: In the cell culture study, 80-90% confluent HepG2 cells were incubated for 5 days with the following media:
1. Minimum essential medium containing 1% bovine serum albumin (MEM+BSA)
2. The same medium containing […] bovine insulin
All media were changed on day 3 to maintain high concentration of insulin (which undergoes partial degradation after long-term incubation). After 5 days, media and cells were collected. Medium concentrations of apo B were measured by Elisa and expressed as μg per mg cell protein as described previously^8.

[2] = test system: human liver cell line HepG2; details: cited from earlier work
[3] = test system: hamsters made insulin resistant by feeding 60% fructose diet; test: Hamsters made insulin resistant by 60% fructose diet, tangeretin supplementation, 2 weeks; details: for HDL cholesterol / Insulin / NEFA / NO2/NO3 / Triacylglycerols / VLDL + LDL cholesterol / Total cholesterol: serum, mean ± SD
Description: Diets were pair-fed to control for 2 weeks. After that time, fasting blood samples were collected by heart puncture for measurement of plasma lipids, glucose, NEFA, insulin and nitrites/nitrates (end products of nitric oxide metabolism). Total cholesterol in whole serum and in HDL fraction as well as total triglycerides and glucose were measured by enzymatic timed-endpoint methods, using the Beckman Coulter reagents and SYNCHRON™ LX System. VLDL+LDL cholesterol concentrations were calculated as a difference between total and HDL cholesterol. NEFA were determined enzymatically by NEFA C kit (Wako Chemicals USA Inc., Richmond, Va.). Serum insulin was measured using Rat Insulin RIA kit from Linco Research Inc. St. Charles, Mo. Serum nitrates/nitrites concentrations were determined using Nitrate/Nitrite Colorimetric Assay kit from Cayman Chemical Co., Ann Arbor, Mich.

alpha-glucosidase = details: cited from earlier work
[4] = target: alpha-glucosidase Type 1 from bakers yeast (Saccharomyces cerevisiae, UniProt P53341); test: In vitro inhibition of alpha-glucosidase; format: biochemical; details: 30 min, 37° C., p-nitrophenyl-alpha-D-glucopyranoside
Sequence of alpha-glucosidase Type 1 from bakers yeast (P53341 whole entry): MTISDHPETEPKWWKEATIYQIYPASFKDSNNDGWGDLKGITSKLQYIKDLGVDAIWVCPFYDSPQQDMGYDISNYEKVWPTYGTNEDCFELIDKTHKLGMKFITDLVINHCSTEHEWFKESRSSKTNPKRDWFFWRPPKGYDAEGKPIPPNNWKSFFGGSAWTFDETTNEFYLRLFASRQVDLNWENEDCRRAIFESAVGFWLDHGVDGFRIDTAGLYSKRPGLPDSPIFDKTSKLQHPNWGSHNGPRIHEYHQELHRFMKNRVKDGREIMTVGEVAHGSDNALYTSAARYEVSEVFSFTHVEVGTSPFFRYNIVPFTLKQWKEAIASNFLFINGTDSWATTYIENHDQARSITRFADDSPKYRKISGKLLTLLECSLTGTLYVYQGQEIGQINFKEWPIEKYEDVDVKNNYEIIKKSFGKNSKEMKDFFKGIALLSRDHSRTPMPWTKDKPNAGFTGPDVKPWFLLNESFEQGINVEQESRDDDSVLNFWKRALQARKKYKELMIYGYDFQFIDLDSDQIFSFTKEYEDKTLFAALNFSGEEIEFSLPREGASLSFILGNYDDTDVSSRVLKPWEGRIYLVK
Description: For the assay, alpha-glucosidase Type 1 from bakers yeast was incubated for 30 min, at 37° C., in the presence of substrate (p-nitrophenyl-alpha-D-glucopyranoside) and in the presence vs. absence of citrus flavonoids or coumarins at concentrations ranging from 3 to 200 μg/mL (0.01 to 1.8 mM). The reaction was stopped by addition of 0.2 M Na2CO3 and absorbance was measured at 405 nm. Background absorbance (without enzyme) was subtracted for every flavonoid or coumarins concentration used. The inhibitory activity was expressed as percent control and IC50 values (concentrations of compounds required to inhibit alpha-glucosidase by 50%) were calculated.

**Q.** Which results are given for `COc1ccc(-c2cc(=O)c3c(OC)c(OC)c(OC)c(OC)c3o2)cc1` [Tangeretin, 5,6,7,8,4′-pentamethoxyflavone]?
**A.** serum content of triacylglycerols and cholesterol [1]: significantly reduced; medium apo B reduced, compared to insulin alone (HepG2 cells): 69%; production of apolipoprotein B (apo B) [2]: substantially reduced; growth rate and food consumption between the groups ([3]; 0.25-1.0% tangeretin, pair-fed, 2 weeks): no significant difference; % change HDL cholesterol ([3]; +0.25% Tan vs fructose group): 0%; % change Insulin ([3]; +0.25% Tan vs fructose group): −13%; % change NEFA ([3]; +0.25% Tan vs fructose group): −23%; % change Total cholesterol ([3]; +0.25% Tan vs fructose group): −5%; % change Triacylglycerols ([3]; +0.25% Tan vs fructose group): −24%; % change HDL cholesterol ([3]; +0.5% Tan vs fructose group): −17%; % change Insulin ([3]; +0.5% Tan vs fructose group): −13%; % change NEFA ([3]; +0.5% Tan vs fructose group): −22%; % change Total cholesterol ([3]; +0.5% Tan vs fructose group): −22%; % change Triacylglycerols ([3]; +0.5% Tan vs fructose group): −27%; % change HDL cholesterol ([3]; +1.0% Tan vs fructose group): −27%; % change Insulin ([3]; +1.0% Tan vs fructose group): −20%; % change NEFA ([3]; +1.0% Tan vs fructose group): −18%; % change NO2/NO3 ([3]; +1.0% Tan vs fructose group): +99%; % change Total cholesterol ([3]; +1.0% Tan vs fructose group): −20%; % change Triacylglycerols ([3]; +1.0% Tan vs fructose group): −32%; HDL cholesterol ([3]; fructose +0.25% Tan): 2.55 ± 0.72 mmol/L; Insulin ([3]; fructose +0.25% Tan): 735 ± 315 pmol/L; NEFA ([3]; fructose +0.25% Tan): 1.48 ± 0.36 mEq/L; NO2/NO3 ([3]; fructose +0.25% Tan): 55.2 ± 18.8 µmol/L; Triacylglycerols ([3]; fructose +0.25% Tan): 1.51 ± 0.56 mmol/L; VLDL + LDL cholesterol ([3]; fructose +0.25% Tan): 0.62 ± 0.3 mmol/L; HDL cholesterol ([3]; fructose +0.5% Tan): 1.93 ± 0.48 mmol/L; Insulin ([3]; fructose +0.5% Tan): 729 ± 239 pmol/L; NEFA ([3]; fructose +0.5% Tan): 1.50 ± 0.33 mEq/L; NO2/NO3 ([3]; fructose +0.5% Tan): 52.0 ± 18.5 µmol/L; Total cholesterol ([3]; fructose +0.5% Tan): 2.61 ± 0.43 mmol/L; Triacylglycerols ([3]; fructose +0.5% Tan): 1.45 ± 0.52 mmol/L; VLDL + LDL cholesterol ([3]; fructose +0.5% Tan): 0.68 ± 0.28 mmol/L; HDL cholesterol ([3]; fructose +1.0% Tan): 1.88 ± 0.26 mmol/L; Insulin ([3]; fructose +1.0% Tan): 675 ± 296 pmol/L; NEFA ([3]; fructose +1.0% Tan): 1.58 ± 0.32 mEq/L; NO2/NO3 ([3]; fructose +1.0% Tan): 106.3 ± 27.9 µmol/L; Total cholesterol ([3]; fructose +1.0% Tan): 2.69 ± 0.23 mmol/L; Triacylglycerols ([3]; fructose +1.0% Tan): 1.35 ± 0.57 mmol/L; VLDL + LDL cholesterol ([3]; fructose +1.0% Tan): 0.81 ± 0.22 mmol/L; Serum nitrate/nitrite concentration ([3]; fructose with 1% tangeretin): doubled; Serum glucose ([3]; supplementation with tangeretin, fructose diet): not altered

**Q.** For `COc1ccc([C@@H]2CC(=O)c3c(O)cc(O[C@@H]4O[C@H](CO[C@@H]5O[C@@H](C)[C@H](O)[C@@H](O)[C@H]5O)[C@@H](O)[C@H](O)[C@H]4O)cc3O2)cc1O` [hesperidin], which “inhibition of alpha-glucosidase, previous studies” value (shortened to “inhibition of alpha-glucosidase”) (alpha-glucosidase) is on record?
**A.** lack of alpha-glucosidase inhibition

**Q.** Which IC50 [4] does the source give for `COc1ccc(-c2oc3c(OC)c(OC)c(OC)c(OC)c3c(=O)c2OC)cc1OC` [Heptamethoxyflavone] here?
**A.** 500 µM

**Q.** And the IC50 alpha-glucosidase [4]?
**A.** 201.7 µg/mL (≈ 466 µM)

**Q.** With `O=c1cc(-c2ccc(O)cc2)oc2cc(O)cc(O)c12` [apigenin] as the molecule, how does the “inhibition of alpha-glucosidase” value (alpha-glucosidase) read?
**A.** inhibition

**Q.** With `O=c1cc(-c2ccc(O)c(O)c2)oc2cc(O)cc(O)c12` [luteolin] as the molecule, how does the “inhibition of alpha-glucosidase” value (alpha-glucosidase) read?
**A.** inhibition
